# Reference: ChEMBL document CHEMBL1201862, “PubChem BioAssay data set” (2004)
# Calls of active or inactive are those of the source.
# How the values were obtained:
# [1] = C. albicans growth with fluconazole, confirmation, fluorescence, retest (AID 2467); assay type: functional, cell-based
# Candida albicans = test: growth inhibition of resistant C. albicans, dose response, CaCi-8, fluconazole, Alamar Blue, dry powder (AID 488807); assay type: functional, organism-based
# [2] = NIH-3T3 fibroblast cytotoxicity, dose response, cytotoxicity control, cell-based, fluorescence, Alamar Blue, secondary assay (AID 2327); assay type: functional;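 also: NIH-3T3 mouse fibroblasts cultured with fluconazole at 8 µg/mL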
# [3] = molecular target: ATP-dependent molecular chaperone HSP82 (Candida albicans (strain WO-1) (Yeast), UniProt C4YTQ8); test: loss of DOC-induced GRE-beta-galactosidase reporter signal, dose response, Hsp90 inhibitor project, S. cerevisiae, luminescence (AID 2400); assay type: functional, cell-based;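 also: beta-galactosidase luminescence from glucocorticoid response element reporter as proxy for Hsp90 function; inhibitor potency where signal loss means Hsp90 inhibition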
# Sequence of ATP-dependent molecular chaperone HSP82 (C4YTQ8 whole entry): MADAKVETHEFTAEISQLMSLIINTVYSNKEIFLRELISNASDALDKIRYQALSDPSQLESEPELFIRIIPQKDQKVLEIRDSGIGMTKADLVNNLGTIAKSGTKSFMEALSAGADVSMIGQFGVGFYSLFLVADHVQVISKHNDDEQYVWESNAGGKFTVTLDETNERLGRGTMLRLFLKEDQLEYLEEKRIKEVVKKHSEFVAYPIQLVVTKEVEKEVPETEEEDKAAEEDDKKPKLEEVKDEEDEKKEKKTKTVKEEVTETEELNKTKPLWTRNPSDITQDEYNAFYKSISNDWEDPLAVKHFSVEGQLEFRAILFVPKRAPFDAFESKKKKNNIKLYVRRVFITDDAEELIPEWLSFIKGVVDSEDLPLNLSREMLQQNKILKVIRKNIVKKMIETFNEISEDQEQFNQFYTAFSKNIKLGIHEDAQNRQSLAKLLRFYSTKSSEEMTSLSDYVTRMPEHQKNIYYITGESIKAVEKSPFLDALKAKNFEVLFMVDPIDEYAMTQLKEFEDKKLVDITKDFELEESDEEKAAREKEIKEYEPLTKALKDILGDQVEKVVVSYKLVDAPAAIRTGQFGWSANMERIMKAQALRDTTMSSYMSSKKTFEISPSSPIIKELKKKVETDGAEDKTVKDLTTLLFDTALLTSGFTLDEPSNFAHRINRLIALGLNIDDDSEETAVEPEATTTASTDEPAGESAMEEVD
# [4] = molecular target: T1, Serine/threonine-protein phosphatase (Candida dubliniensis (strain CD36 / CBS 7987 / NCPF 3949 / NRRLY-17841) (Yeast), UniProt B9W6M3); test: calcineurin pathway inhibitors in yeast reporter, dose response, S. cerevisiae, CDRE-lacZ, luminescence, secondary (AID 2388); assay type: functional, cell-based;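 also: yeast reporter cells carrying a calcineurin-responsive lacZ construct stimulated with calcium chloride; luminescent beta-galactosidase reporter signal in whole cells rather than isolated phosphatase activity; potency for inhibition where a drop in reporter signal means calcineurin blockade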
# T1 sequence (B9W6M3 whole entry): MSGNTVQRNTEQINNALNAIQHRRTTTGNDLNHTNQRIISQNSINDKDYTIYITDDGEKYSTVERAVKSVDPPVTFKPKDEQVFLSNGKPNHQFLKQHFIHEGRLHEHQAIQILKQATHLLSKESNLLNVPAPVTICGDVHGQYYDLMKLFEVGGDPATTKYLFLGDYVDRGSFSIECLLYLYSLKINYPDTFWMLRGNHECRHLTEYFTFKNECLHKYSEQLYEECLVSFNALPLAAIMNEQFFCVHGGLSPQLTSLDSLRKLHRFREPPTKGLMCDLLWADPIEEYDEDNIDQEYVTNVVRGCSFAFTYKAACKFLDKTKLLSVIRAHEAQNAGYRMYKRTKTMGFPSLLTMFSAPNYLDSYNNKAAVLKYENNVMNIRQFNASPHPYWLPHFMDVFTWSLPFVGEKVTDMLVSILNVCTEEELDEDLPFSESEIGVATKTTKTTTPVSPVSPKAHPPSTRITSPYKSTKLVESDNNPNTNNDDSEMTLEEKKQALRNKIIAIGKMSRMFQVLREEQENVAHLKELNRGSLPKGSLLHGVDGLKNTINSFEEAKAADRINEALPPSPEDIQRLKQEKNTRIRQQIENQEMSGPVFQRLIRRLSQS
# Phospholipase A2 = Phospholipase A2 (Homo sapiens, UniProt P04054); test: PLA2 enzyme inhibitors, dose response, counter-screen for ATG4B inhibitor project, biochemical, set 2 (AID 588586); assay type: functional
# Sequence of Phospholipase A2 (P04054 whole entry): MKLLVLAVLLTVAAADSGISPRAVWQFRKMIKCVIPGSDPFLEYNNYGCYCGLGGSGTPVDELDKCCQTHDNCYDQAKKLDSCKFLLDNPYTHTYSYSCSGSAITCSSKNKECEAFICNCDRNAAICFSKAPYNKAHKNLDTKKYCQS
# Beta-galactosidase = Beta-galactosidase (Escherichia coli, UniProt Q8VNN2); test: Dose response counterscreen for EBI2 assay utilizing the enzyme, b-galactosidase.; assay type: functional
# Cysteine protease ATG4B = molecular target: T2, Cysteine protease ATG4B (Homo sapiens, UniProt Q9Y4P1); test: ATG4B protease inhibitors, dose response, biochemical, fluorescence, set 2 (AID 588584); assay type: functional
# T2 sequence (Q9Y4P1 whole entry): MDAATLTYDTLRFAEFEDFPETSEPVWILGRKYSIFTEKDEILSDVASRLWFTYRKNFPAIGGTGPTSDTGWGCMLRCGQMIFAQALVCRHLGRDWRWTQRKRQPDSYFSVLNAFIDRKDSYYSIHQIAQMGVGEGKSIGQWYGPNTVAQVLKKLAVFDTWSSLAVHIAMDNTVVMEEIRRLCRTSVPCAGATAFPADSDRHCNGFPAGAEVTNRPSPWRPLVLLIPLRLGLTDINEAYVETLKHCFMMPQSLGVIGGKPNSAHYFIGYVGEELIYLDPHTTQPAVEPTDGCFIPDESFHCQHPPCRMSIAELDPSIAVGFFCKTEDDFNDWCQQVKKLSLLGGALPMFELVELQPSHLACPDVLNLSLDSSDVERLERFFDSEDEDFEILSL
# [5] = molecular target: Intestinal-type alkaline phosphatase (Mus musculus, UniProt P24822); test: PubChem AID 488874; assay type: functional
# Sequence of Intestinal-type alkaline phosphatase (Mus musculus, UniProt P24822) (P24822 whole entry): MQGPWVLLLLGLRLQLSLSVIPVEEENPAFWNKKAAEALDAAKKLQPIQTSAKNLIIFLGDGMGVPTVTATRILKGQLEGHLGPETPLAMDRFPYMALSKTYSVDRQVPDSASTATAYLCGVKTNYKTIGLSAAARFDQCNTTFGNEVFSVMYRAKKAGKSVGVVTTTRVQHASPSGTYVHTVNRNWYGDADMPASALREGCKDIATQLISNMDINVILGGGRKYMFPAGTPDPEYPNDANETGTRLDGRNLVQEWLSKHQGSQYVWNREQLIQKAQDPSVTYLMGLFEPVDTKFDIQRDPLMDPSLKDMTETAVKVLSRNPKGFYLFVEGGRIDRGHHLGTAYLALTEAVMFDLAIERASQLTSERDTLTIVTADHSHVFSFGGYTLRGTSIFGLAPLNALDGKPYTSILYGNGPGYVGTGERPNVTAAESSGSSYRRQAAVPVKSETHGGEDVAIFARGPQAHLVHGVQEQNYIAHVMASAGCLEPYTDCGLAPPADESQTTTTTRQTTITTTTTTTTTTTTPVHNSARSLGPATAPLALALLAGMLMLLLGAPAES
# [6] = molecular target: T3, Alkaline phosphatase, tissue-nonspecific isozyme (Homo sapiens, UniProt P05186); test: TNAP enzyme activators, dose response, selectivity assay for human IAP activator project, biochemical, TNAP isozyme, human IAP uHTS hits (AID 488886); assay type: functional;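 also: potency of compounds raising TNAP activity as a selectivity check on IAP activators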
# T3 sequence (P05186 whole entry): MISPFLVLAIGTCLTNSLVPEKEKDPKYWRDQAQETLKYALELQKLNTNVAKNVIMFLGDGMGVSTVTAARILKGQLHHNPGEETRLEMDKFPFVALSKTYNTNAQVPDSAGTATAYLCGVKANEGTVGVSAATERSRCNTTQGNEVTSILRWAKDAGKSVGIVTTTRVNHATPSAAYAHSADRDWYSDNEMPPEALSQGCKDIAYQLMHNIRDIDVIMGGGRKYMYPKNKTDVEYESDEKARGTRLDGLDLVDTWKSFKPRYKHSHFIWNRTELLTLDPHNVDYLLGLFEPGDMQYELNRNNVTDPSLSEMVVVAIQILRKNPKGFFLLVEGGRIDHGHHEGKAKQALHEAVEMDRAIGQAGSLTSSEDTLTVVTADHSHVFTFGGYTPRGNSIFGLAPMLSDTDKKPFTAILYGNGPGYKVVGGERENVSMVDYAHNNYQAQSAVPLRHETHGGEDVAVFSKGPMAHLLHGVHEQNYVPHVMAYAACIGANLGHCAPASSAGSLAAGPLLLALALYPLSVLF
# [7] = molecular target: T4, Intestinal-type alkaline phosphatase (Homo sapiens, UniProt P09923); test: human IAP activators, dose response, biochemical, luminescent, uHTS hits, set 2 (AID 488817); assay type: functional;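 also: potency of activators that raise enzyme activity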
# T4 sequence (P09923 whole entry): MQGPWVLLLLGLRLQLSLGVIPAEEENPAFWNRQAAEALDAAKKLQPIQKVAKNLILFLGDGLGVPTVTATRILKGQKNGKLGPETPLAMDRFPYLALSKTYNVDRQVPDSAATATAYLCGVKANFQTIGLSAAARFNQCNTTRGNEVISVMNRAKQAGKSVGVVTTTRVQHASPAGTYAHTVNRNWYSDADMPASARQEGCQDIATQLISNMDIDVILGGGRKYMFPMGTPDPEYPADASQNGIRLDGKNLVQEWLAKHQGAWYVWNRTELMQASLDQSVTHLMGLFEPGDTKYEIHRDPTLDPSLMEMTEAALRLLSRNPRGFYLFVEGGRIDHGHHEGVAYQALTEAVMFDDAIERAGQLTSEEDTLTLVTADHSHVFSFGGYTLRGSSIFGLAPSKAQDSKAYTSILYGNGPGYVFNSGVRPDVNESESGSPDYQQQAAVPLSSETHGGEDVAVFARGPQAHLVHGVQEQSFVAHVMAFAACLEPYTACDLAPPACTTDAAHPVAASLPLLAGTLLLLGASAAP
# [8] = molecular target: T4, Intestinal-type alkaline phosphatase; test: human intestinal alkaline phosphatase activators, dose response, biochemical, luminescence, uHTS hits (AID 463120); assay type: functional
# [9] = molecular target: T4, Intestinal-type alkaline phosphatase; test: Dose Response confirmation of uHTS hits from a small molecule inhibitors of human intestinal alkaline phosphatase via a luminescent assay. [Related pubchem assays (depositor defined):AID2544, AID2574]; assay type: functional
# [10] = molecular target: T4, Intestinal-type alkaline phosphatase; test: human IAP inhibitors, dose response, biochemical, luminescent, uHTS hits, set 2 (AID 488793); assay type: functional
# [11] = molecular target: T3, Alkaline phosphatase, tissue-nonspecific isozyme; test: inhibition of tissue-nonspecific alkaline phosphatase – biochemical, dose response (AID 488882); assay type: functional
# Exodeoxyribonuclease V = Exodeoxyribonuclease V (Escherichia coli (strain K12), UniProt P04993+P07648+P08394); test: E. coli RecBCD inhibitors, dose response, counter-screen for AddAB inhibitor project, absorbance, V66 E. coli, mutant T4 phage (AID 492957); assay type: functional, cell-based, Escherichia coli str. K-12 substr. MG1655
# Sequence of Exodeoxyribonuclease V (P04993 whole entry): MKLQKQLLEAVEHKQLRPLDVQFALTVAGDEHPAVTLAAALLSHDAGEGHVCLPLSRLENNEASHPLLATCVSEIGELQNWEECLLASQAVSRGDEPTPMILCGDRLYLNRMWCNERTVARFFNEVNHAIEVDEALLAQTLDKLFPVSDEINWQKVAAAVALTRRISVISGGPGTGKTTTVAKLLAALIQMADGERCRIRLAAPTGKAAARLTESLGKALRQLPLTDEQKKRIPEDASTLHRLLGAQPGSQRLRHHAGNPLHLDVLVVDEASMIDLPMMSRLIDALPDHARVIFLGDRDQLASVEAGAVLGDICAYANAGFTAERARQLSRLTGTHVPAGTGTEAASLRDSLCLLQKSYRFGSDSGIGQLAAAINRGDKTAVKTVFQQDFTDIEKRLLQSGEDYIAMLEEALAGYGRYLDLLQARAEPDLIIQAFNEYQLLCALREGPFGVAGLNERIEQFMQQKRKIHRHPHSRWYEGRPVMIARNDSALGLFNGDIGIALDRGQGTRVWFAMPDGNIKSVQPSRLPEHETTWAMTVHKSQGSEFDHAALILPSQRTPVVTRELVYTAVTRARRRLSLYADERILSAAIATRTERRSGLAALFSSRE
# Sequence of Exodeoxyribonuclease V (P07648 whole entry): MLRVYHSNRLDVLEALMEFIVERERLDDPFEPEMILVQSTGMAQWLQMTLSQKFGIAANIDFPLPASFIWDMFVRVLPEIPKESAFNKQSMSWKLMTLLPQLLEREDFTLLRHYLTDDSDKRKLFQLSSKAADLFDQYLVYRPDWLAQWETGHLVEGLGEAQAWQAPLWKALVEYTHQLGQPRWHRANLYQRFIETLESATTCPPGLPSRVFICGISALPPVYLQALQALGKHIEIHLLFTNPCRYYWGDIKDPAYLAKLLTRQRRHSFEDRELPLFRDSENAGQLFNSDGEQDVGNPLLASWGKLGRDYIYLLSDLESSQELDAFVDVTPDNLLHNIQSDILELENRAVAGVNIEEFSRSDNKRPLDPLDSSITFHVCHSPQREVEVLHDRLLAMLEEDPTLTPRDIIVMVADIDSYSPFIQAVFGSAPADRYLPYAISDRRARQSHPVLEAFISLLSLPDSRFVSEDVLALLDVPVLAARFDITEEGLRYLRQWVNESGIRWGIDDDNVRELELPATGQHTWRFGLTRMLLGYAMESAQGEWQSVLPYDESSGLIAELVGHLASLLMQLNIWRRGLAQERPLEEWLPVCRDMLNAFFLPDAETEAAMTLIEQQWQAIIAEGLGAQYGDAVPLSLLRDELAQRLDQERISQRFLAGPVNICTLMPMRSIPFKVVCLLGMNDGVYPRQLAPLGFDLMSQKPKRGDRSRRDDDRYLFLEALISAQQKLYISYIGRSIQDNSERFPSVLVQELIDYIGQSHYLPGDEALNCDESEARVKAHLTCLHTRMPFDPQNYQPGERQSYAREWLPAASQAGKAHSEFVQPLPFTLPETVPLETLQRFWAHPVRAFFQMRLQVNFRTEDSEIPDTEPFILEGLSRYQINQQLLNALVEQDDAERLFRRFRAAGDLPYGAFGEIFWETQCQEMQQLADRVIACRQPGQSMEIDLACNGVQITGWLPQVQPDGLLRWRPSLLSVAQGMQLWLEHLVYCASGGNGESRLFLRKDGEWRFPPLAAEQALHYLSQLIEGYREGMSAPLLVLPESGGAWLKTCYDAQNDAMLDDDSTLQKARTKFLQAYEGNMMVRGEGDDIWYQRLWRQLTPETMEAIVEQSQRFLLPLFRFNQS
# Sequence of Exodeoxyribonuclease V (P08394 whole entry): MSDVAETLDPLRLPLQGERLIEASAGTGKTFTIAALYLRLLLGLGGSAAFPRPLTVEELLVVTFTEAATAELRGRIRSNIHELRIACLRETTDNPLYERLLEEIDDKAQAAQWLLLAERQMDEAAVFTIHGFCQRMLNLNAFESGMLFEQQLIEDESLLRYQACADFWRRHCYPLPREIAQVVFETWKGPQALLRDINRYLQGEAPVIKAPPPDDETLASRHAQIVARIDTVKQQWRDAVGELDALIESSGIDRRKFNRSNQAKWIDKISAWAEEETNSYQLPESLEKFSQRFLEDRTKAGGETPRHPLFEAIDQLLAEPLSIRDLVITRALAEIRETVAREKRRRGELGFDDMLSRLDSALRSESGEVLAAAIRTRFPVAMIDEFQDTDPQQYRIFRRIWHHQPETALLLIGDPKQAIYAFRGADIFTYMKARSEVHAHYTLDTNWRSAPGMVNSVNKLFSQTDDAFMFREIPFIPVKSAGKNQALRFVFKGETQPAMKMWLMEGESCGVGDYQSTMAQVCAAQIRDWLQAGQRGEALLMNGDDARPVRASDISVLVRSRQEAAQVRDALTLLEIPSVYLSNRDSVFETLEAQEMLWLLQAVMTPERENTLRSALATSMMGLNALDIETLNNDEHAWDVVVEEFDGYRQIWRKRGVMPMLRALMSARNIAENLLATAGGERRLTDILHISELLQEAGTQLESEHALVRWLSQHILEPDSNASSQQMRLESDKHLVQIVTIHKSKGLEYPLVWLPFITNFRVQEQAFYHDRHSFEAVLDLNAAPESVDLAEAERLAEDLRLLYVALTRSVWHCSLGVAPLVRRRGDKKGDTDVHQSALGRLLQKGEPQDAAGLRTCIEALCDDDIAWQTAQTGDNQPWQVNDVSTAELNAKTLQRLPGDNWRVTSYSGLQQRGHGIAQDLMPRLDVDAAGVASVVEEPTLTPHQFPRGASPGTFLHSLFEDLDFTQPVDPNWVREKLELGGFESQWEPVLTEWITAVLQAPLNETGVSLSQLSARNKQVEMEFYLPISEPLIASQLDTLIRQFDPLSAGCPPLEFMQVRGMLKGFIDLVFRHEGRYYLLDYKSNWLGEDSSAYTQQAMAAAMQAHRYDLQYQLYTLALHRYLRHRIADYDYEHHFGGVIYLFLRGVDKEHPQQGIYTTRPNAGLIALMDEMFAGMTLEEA
# [12] = Counterscreen for AddAB inhibitors: absorbance-based bacterial cell-based high throughput dose response assay for inhibitors of bacterial viability. [Related pubchem assays (depositor defined):AID435030, AID449728, AID449731, AID488942, AID488955, AID488956]; assay type: functional
# [13] = Luminescence Cell-Based Dose Response HTS to Identify Inhibitors of 5'UTR Stem-Loop Driven Prion Protein mRNA Translation in H4 Neuroglioblastoma Cells. [Related pubchem assays: 1827 (Project Summary), 1813 (Primary HTS)]; assay type: functional
# [14] = molecular target: T5, RNA-binding protein pos-1 (Caenorhabditis elegans, UniProt G5EF15); test: inhibitors of POS-1/mex-3 RNA binding, dose response, biochemical, fluorescence polarization (AID 1964);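 also: purified POS-1 fused to maltose binding protein made in E. coli; potency of compounds blocking POS-1 binding to fluorescent RNA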
# T5 sequence (G5EF15 whole entry): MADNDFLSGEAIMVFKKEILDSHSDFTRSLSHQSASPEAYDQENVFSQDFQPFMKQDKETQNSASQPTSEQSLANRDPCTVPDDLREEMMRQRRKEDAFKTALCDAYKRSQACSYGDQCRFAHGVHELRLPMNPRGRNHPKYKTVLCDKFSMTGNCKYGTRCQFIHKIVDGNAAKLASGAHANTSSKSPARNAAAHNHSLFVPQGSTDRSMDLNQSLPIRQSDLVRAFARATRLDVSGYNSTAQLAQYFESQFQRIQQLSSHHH
# [15] = molecular target: T6, Zinc finger protein mex-5 (Caenorhabditis elegans, UniProt Q9XUB2); test: MEX-5/TCR-2 RNA interaction inhibitors, dose response, biochemical, C. elegans, fluorescence polarization (AID 1960)
# T6 sequence (Q9XUB2 whole entry): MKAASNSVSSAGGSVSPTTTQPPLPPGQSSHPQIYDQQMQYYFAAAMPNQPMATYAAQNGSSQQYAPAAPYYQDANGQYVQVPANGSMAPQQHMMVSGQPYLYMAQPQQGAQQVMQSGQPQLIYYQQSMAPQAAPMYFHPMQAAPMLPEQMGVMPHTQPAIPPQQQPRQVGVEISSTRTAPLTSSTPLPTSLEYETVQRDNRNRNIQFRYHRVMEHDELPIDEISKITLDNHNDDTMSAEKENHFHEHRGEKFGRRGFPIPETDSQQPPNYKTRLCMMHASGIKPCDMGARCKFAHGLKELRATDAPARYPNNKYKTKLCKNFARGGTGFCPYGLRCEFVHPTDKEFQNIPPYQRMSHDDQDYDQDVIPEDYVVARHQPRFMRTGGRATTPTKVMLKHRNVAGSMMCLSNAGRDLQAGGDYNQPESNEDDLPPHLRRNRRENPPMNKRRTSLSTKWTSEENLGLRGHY
# INS1 = test: beta cell apoptosis inhibitors, cytokine rescue, dose response, luminescence, retest (AID 449756); assay type: functional, cell-based; settings: Rattus norvegicus;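 also: cell death triggered by IL-1 beta plus TNF-alpha plus IFN-gamma mixture; protective hits raise ATP signal compared with cytokine alone wells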
# [16] = inhibitors of SNCA 5'UTR-driven reporter translation, confirmation, H4 neuroglioma cells, luminescence (AID 1988); assay type: functional, cell-based
# [17] = inhibitors of firefly luciferase expression or activity, dose response, H4 neuroglioma cells, luminescence (AID 1990); assay type: functional, cell-based
# [18] = molecular target: T7, Heat shock factor protein 1 (Mus musculus, UniProt P38532); test: inhibition of MG132-induced HSE-luciferase signal, confirmation, cell-based, NIH3T3, luminescence, dose retest (AID 2382); assay type: functional;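 also: NIH3T3 fibroblasts with HSF1-driven luciferase reporter stressed by proteasome inhibitor MG132; luminescence from HSF1-driven luciferase expression after 8 hours of MG132 stress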
# T7 sequence (P38532 whole entry): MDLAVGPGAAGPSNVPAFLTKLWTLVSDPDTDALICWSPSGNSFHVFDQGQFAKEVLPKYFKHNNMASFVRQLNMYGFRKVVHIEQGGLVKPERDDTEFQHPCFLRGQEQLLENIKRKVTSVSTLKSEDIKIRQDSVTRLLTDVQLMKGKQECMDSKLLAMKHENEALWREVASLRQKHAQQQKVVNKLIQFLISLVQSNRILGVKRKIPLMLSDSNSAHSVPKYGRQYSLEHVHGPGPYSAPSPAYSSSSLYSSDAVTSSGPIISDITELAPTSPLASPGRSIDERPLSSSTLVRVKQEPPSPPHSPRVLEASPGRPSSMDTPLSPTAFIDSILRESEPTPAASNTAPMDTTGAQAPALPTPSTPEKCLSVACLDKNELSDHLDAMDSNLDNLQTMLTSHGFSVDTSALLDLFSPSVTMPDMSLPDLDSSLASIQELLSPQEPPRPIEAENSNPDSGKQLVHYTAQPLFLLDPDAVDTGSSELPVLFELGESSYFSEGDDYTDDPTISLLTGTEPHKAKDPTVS
smiles,measurement,setting,value
COC(=O)Cn1nc(-c2ccccc2)c2ccccc21,EC50,[1],0.81 µM (active)
same,AC50,Candida albicans,1.15 µM (active)
same,EC50,[2],> 150 µM (inactive)
same,EC50,[3],33.9 µM (active)
same,EC50,[4],> 180 µM (inactive)
Clc1ccc(-c2nnc(CSc3nnc(-c4cccs4)n3Cc3ccccc3)o2)cc1,IC50,Phospholipase A2,35.1 µM (inactive)
same,IC50,Beta-galactosidase,> 80 µM (inactive)
same,IC50,Cysteine protease ATG4B,37.3 µM (inactive)
COc1ccc(C2=NN(C3=NN=C(N)Cc4ncnn43)C(O)(C(F)(F)F)C2)cc1 (configuration not stated),IC50,[5],41.2 µM (active)
same,EC50,[6],14.1 µM (active)
same,EC50,[7],13.3 µM (active)
same,EC50,[8],7.5 µM (active)
CCOc1cc(/C=C2/C(=O)ON=C2C)cc(Br)c1O,IC50,[5],33.1 µM (active)
same,IC50,[9],19.3 µM (inactive)
same,IC50,[10],35.8 µM (active)
same,IC50,[11],38.1 µM (active)
CCCNC(=O)c1ccc2c(O)c(O)c(-c3cccc(Br)c3)nc2c1,IC50,Exodeoxyribonuclease V,> 119 µM (inactive)
same,IC50,[12],> 119 µM (inactive)
same,EC50,[1],2.09 µM (active)
same,EC50,[13],4.83 µM (active)
same,EC50,[2],15.6 µM (active)
same,EC50,[14],1.6 µM (active)
same,EC50,[15],2.73 µM (active)
same,AC50,INS1,5.4 µM (active)
same,EC50,[16],3.4 µM (active)
same,EC50,[17],3.04 µM (active)
same,EC50,[18],> 195 µM (not active)
